Test results taken from patent US20110288105A1, “ELTOPRAZINE FOR THE TREATMENT OF L-DOPA-INDUCED DYSKINESIA” (Merz Pharma GmbH & Co. KGaA, priority 2008, published 2011).
Entries after “also recorded” stand apart in the source; their conditions may differ.

How the values were obtained:
[1] = tested on: rodent models of depression; details: in vivo; cited from earlier work
[2] = tested on: 1-methyl-4-phenyl-1,2,3,6-tetrahydropyridine-treated primates; details: monkey studies; Iravani et al. 2003; cited from earlier work
[3] = molecular target: T1, human serotonin HT1a receptor (Homo sapiens, UniProt P08908); experiment: GTPγS assay, agonist testing, 5-HT1a; format: biochemical; details: human recombinant cell lines; FIG. 1; relevant plasma concentration (<0.5 μM)
T1 construct: expressed in transfected cells; host or cells: CHO-K1
T1 sequence (P08908 1-422): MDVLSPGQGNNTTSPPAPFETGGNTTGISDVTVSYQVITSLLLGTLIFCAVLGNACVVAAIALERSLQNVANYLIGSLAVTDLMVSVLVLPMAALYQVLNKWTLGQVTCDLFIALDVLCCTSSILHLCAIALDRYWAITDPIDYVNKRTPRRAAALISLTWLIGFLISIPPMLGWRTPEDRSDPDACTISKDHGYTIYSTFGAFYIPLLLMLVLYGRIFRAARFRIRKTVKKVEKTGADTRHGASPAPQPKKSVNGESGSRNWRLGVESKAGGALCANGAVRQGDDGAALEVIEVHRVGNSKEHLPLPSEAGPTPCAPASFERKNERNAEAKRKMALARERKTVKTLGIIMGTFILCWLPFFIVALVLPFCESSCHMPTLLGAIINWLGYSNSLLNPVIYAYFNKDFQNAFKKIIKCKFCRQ
Protocol: (§1) Eltoprazine was tested for activity on the human serotonin HT1a and 5-HT1b receptors using a GTPγS assay. Recombinant membranes obtained from CHO-K1 cells expressing either the 5-HT1a or 5-HT1b receptors were mixed with GDP (volume:volume) and incubated for at least 15 min on ice. In parallel, GTPγ[35S] was mixed with the beads (volume:volume) just before starting the reaction. The following reagents were successively added in the wells of an Optiplate (Perkin Elmer): 50 μl of test compound, 20 μl of the membranes:GDP mix, 10 μl of assay buffer (for agonist testing) and 20 μl of the GTPγ[35S]:beads mix. The plates were covered with a top seal, shaken on an orbital shaker for 2 min, and then incubated for 1 hour at room temperature. Then the plates were centrifuged for 10 min at 2000 rpm, incubated at room temperature 1 hour and counted for 1 min/well with a PerkinElmer TopCount reader.

human 5-HT1b receptor = molecular target: T2, human 5-HT1b receptor (Homo sapiens, UniProt P28222); experiment: GTPγS assay, agonist testing, 5-HT1b; format: biochemical; details: human recombinant cell lines; FIG. 1; relevant plasma concentration (<0.5 μM)
T2 construct: expressed in transfected cells; host or cells: CHO-K1
Protocol: as §1

[4] = molecular target: T3, 5-HT2a recombinant receptor (Homo sapiens, UniProt P28223); experiment: Aequorin cell line functional assay, 5-HT2a; format: cell-based; details: human recombinant cell lines; FIG. 1; relevant plasma concentration (<0.5 μM)
T3 construct: expressed in transfected cells
Protocol: (§2) Aequorin cell lines expressing the 5-HT2a, 5-HT2b and 5-HT2c non-edited (ne) recombinant receptors were used to evaluate the functional activity of eltoprazine. Aequorin cells grown 18 hours prior to the test in media without antibiotics were detached by gentle flushing with PBS-EDTA (5 mM EDTA), recovered by centrifugation and resuspended in “assay buffer” (DMEM/HAM's F12 with HEPES+0.1% BSA protease free). Cells were incubated at room temperature for at least 4 h with Coelenterazine h (Molecular Probes). The reference agonist used were 5-HT and a-methyl-5-HT. For agonist testing, 50 μl of cell suspension were injected on 50 μl of test compound or reference agonist plated in a 96-well plate. The resulting emission of light was recorded using the Hamamatsu Functional Drug Screening System 6000 (FDSS 6000).

[5] = molecular target: T4, 5-HT2c non-edited (ne) recombinant receptor (Homo sapiens, UniProt P28335); experiment: Aequorin cell line functional assay, 5-HT2c non-edited; format: cell-based; details: human recombinant cell lines; FIG. 1; relevant plasma concentration (<0.5 μM)
T4 construct: expressed in transfected cells
T4 sequence (P28335 33-458): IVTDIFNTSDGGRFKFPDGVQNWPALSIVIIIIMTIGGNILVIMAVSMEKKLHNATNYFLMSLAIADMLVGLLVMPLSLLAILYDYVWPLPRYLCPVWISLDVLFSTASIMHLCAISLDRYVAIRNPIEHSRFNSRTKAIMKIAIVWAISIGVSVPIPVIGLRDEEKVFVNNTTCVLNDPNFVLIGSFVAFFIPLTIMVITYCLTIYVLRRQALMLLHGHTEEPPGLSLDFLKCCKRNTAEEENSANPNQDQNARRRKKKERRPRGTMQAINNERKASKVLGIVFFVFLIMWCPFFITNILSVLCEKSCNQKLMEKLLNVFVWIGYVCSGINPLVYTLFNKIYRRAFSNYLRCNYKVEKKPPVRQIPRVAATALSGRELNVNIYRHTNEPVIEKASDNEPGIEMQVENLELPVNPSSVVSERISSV
Protocol: as §2

dopamine D2 receptor = dopamine D2 receptor (Homo sapiens, UniProt P14416); experiment: Affinity for dopamine D2 receptor; format: binding
[6] = tested on: unilaterally 6-OHDA-lesioned rats; experiment: L-DOPA-induced dyskinesia (AIM scores) in 6-OHDA-lesioned rat model of Parkinson's disease; format: in vivo; details: eltoprazine hydrochloride 0.08, 0.3, 1.25 and 5 mg/kg s.c.; after 21 days of L-DOPA; FIG. 2
Protocol: (§3) Male Sprague Dawley rats (Elevage Janvier, Le Genest Saint Isle, France) weighing between 220 and 250 g at the beginning of the study are used in these experiments. They are housed under a 12-hr light/dark cycle with free access to standard pelleted food and tap water. Animal treatment and experimental procedures are approved by local ethical committees (Regierungspräsidium Darmstadt; Germany).
(§4) Dopamine-denervating lesions are performed on rats anaesthetized with a 5:1 mixture of ketamine and xylazine (1 ml/kg, i.p.). […] The animals' turning behaviour is recorded in an automated rotometer (TSE Rotameter System, TSE—Systems GmbH, Bad Homburg, Germany) over a 90-min period after the intraperitoneal (i.p.) injection of 2.5 mg/kg dexamphetamine sulphate dissolved in saline. […]
In order to evaluate a the severity of LID, AIMs are recorded every second day as described by Cenci et al. (1998). […]
Eur J Neurosci 1998 10:2694-2706. […] Each rat is scored on a severity scale from 0 to 4 based on its frequency and persistence (1=occasional; 2=frequent; 3=continuous but interrupted by sensory distraction; 4=continuous, severe and not interrupted by sensory distraction). […]

[7] = tested on: unilaterally 6-OHDA-lesioned rats; experiment: Turning behaviour induced by high dose of L-DOPA in 6-OHDA-lesioned rats; format: in vivo, rat; details: 0.3, 1.25 and 5 mg/kg, 30 min before test, FIG. 3
Protocol: as §3, §4
In order to evaluate the effect of eltoprazine on parkinsonian symptoms and its interaction with L-DOPA, rotational behaviour is evaluated. The numbers of ipsilateral and contralateral turns are recorded in an automated rotometer (TSE Rotameter System, TSE—Systems GmbH, Bad Homburg, Germany) over a period of 180 min. […]

T2 sequence (P28222 whole entry): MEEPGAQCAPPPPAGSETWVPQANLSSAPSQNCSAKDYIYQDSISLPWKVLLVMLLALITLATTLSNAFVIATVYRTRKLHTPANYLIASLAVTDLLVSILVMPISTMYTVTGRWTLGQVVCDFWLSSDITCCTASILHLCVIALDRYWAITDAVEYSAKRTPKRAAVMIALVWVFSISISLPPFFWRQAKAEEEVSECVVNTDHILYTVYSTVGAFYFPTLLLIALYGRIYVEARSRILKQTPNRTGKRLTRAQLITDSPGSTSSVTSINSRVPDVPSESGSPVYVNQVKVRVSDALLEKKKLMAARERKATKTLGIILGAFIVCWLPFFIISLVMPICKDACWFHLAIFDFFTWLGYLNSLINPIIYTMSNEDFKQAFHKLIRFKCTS
T3 sequence (P28223 whole entry): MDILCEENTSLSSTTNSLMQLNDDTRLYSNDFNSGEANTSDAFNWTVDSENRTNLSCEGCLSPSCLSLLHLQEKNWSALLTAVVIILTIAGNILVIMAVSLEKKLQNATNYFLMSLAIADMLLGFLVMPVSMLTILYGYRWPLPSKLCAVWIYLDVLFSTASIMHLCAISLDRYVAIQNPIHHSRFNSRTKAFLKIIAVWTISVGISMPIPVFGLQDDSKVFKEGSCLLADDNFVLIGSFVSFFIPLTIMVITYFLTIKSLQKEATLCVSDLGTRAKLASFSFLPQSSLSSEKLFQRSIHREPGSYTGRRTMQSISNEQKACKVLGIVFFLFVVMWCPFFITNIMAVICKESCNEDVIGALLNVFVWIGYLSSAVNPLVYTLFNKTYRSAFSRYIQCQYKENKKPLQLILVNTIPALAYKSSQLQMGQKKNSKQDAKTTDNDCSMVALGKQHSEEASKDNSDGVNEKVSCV
Sequence of dopamine D2 receptor (P14416 whole entry, species assumed): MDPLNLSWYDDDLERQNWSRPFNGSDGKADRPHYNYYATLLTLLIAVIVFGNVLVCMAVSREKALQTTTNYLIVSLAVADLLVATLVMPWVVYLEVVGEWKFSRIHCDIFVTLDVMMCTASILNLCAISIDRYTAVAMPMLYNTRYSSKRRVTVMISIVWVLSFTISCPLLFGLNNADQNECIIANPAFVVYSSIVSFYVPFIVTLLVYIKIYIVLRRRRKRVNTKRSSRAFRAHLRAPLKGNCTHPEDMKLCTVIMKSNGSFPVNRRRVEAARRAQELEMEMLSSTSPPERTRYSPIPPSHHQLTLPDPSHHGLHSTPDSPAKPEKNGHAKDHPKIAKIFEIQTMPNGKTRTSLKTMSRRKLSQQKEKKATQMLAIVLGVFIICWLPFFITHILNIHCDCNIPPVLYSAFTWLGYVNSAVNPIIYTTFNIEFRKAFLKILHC

COc1ccc2c(c1O[C@H]1CCNC1)CCC2 [Org 37684]
effect in rodent models of depression [1]: positive effects

C[C@H](N)Cn1ccc2cc(F)c(Cl)cc21 [Ro 60-0175]
effect in rodent models of depression [1]: positive effects

COc1ccc2[nH]cc(C3=CCNCC3)c2c1 [Ru-24969]
effect on motor symptoms / side effects [2]: worsening of motor symptoms and/or development of side effects

c1cc2c3c(c1)[C@H]1CCC[C@H]1N3CCNC2 [WAY-163909]
effect in rodent models of depression [1]: positive effects

CCc1cc2c(ccc3cnn(C[C@H](C)N)c32)o1 [YM348]
effect in rodent models of depression [1]: positive effects

c1cc2c(c(N3CCNCC3)c1)OCCO2 [eltoprazine, 1-(2,3-dihydro-1,4-benzodioxin-5-yl)piperazine]
functional action on 5-HT1a receptor [3]: weak agonistic action | functional action on 5-HT1b receptor (human 5-HT1b receptor): partial agonistic action | functional action on 5-HT2a receptor [4]: partial agonistic action | functional action on 5-HT2c receptor [5]: agonist | affinity for the dopamine D2 receptor (dopamine D2 receptor): devoid of significant affinity | effect on AIM scores (L-DOPA-induced dyskinesia) [6]: significantly reverses, in a dose-dependent manner | interference with the antiparkinsonian effect of L-DOPA (turning behaviour) [7]: does not interfere with the antiparkinsonian effect of L-DOPA; also recorded: does not interfere with the anti-parkinsonian effect of L-DOPA

Clc1cccc(N2CCNCC2)c1 [mCPP]
effect in rodent models of depression [1]: positive effects
